The source of these data is US6379900B1, “Compositions and methods of use of 8-nitroguanine” (Conceptual Mindworks, Inc., priority 2000, dated 2002).

One series deals with Calf Thymus DNA. Kind of series: Viscosity studies of DNA exposed to peroxynitrite (depurination and strand breakage). It counts as biochemical. The source says: As the degree of DNA damage increases, the likelihood of two single stranded breaks occurring within a few bases on the opposite strands of double-stranded DNA also increases. Double-stranded DNA breaks result in a decrease in the length of the DNA molecule, detectable as a decreased viscosity of linear double-stranded DNA. This method was also used to assay for depurination and DNA strand breakage. Stock solutions of Sigma Calf Thymus DNA were made by dissolving DNA in 0.1 M Na2HPO4, pH 8, 0.1 M sodium cacodylate, pH 5, 0.1 M Tris, pH 8, and 0.1 M borate, pH 8. The final volume for all viscosity experiments was 40 ml and the DNA concentration was 420 μg/ml. […] The data was recorded as the relative viscosity and specific viscosity of the solution.

The subject of series [1] is supercoiled pUC19 plasmid DNA. Kind of series: Conversion of supercoiled plasmid DNA to open circles (single-stranded DNA breaks) by peroxynitrite. In kind it is biochemical, E coli. The protocol:
E coli strain JM109 containing plasmid DNA (pUC19) was grown in 2 ml of M9 media to which 24 μl of 2.5 mg/ml ampicillin was added. Following incubation for approximately 8 hours, the culture was transferred to 50 ml of M9 media containing ampicillin. The following day, 25 ml of the overnight culture was used to inoculate 500 ml of M9 media containing ampicillin. When the optical density at 600 nm of the bacterial culture reached between 0.6 and 0.8 O.D., 50 mg of chloramphenicol, dissolved in 1 ml of absolute ethanol, was added to the culture and the culture was incubated overnight. The next morning, cells were harvested by centrifugation. Plasmid DNA was isolated using a Promega Wizard MaxiPrep Kit. Cells were resuspended in resuspension solution, and lysis buffer was added. The buffer was neutralized after 20 min, the solution was centrifuged and the supernatant collected. To the supernatant was added 0.5 volumes of isopropanol, which caused the DNA to precipitate. […] After removing the fine particles the DNA was ready for use. Its concentration was measured by absorbance at 260 nm (0.2 OD units=10 μg/ml). Plasmid DNA was analyzed by electrophoresis in TAE buffer using a 1% agarose gel. […] DNA was analyzed as described above. The effect of peroxynitrite concentration on the conversion of supercoils to open circles was determined at pH 5, 6, 7, 8, and 9. […] DNA was analyzed as described above. […]

For series [2] the following is noted: cited from earlier work.

On to `O=NOO` [peroxynitrite], for which the “activation energy of the depurination reaction (formation of single-stranded DNA nicks)” value in the series with Calf Thymus DNA (Arrhenius analysis) stood at 917 Joules/mole. Moreover, in the series on Calf Thymus DNA (all pH values, 37° C., within the first two hours of exposure), the “viscosity of DNA solution with time of exposure” value is recorded as “Viscosity decreased”. The “reduction in DNA supercoiling” value in series [1] (minimum observed under the conditions of the study, constant peroxynitrite concentration) is reported as no less than 45%. Further, the “conversion of supercoiled plasmid DNA to open circles” value in series [1] (pH 4 to 10, 30 minutes at room temperature) is “effective at converting supercoiled plasmid DNA to open circles at all pHs”.

Turning to `O=NOO` [peroxynitrous acid], in series [2] (acid form of peroxynitrite), the pKa was 6.8. In addition, the half life in series [2] (pH 7.4) is 1.9 s.
